ChEMBL document CHEMBL1142190, “Development of a new methodology for screening of human immunodeficiency virus type 1 microbicides based on real-time PCR quantification” (Antimicrob Agents Chemother, 2007)

Experiments:
[1] = tested on: Human immunodeficiency virus 1; test: Inhibition of reverse transcriptase RTY18C mutant in HIV1 Z6gpt assessed as inhibition of ssDNA synthesis
[2] = target: Human immunodeficiency virus type 1 reverse transcriptase (Human immunodeficiency virus 1) (UniProt Q72547); conditions: 10 uM
Description: Inhibition of reverse transcriptase assessed as decrease in ssDNA level in cell free virion HIV1 by NERT-based real-time PCR at 10 uM

Cc1ccnc2c1NC(=O)c1cccnc1N2C1CC1
Activity [1]: 256 µM | inhibition [2]: 75%
